Test results published in PubChem BioAssay AID256 (DTP/NCI, 2004).
Several values for one entry are separate records, joined by “and”; a condition that tells them apart may be missing. Identical values can stand only once. Inconclusive results and toxic doses are left out. Rule for the calls: active = survival T/C of 150% or more; inactive = T/C below 125% in these data.

Tested on: CD2F1 mice, L1210 leukemia ip, survival T/C
Experiment: NCI In Vivo Anticancer Drug Screen. Data for tumor model L1210 Leukemia (intraperitoneal) in CD2F1 (CDF1) mice
Details: higher = longer survival
How it was run: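 Compound-dosed mice with transplantable tumor versus matched vehicle controls; endpoint ratio T/C reported.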

[1] = endpoint: mean survival time, dose: 100.0 mg/kg/injection, schedule: Q01DX009 (ip), vehicle: saline with Tween-80
[2] = endpoint: mean survival time, dose: 100.0 mg/kg/injection, schedule: Q04DX003 (ip), vehicle: saline with Tween-80
[3] = endpoint: mean survival time, dose: 200.0 mg/kg/injection, schedule: Q01DX009 (ip), vehicle: saline with Tween-80
[4] = endpoint: mean survival time, dose: 200.0 mg/kg/injection, schedule: Q04DX003 (ip), vehicle: saline with Tween-80
[5] = endpoint: mean survival time, dose: 400.0 mg/kg/injection, schedule: Q01DX009 (ip), vehicle: saline with Tween-80
[6] = endpoint: mean survival time, dose: 400.0 mg/kg/injection, schedule: Q04DX003 (ip), vehicle: saline with Tween-80
[7] = endpoint: mean survival time, dose: 50.0 mg/kg/injection, schedule: Q01DX009 (ip), vehicle: saline with Tween-80
[8] = endpoint: mean survival time, dose: 100.0 mg/kg/injection, schedule: Q01DX001 (ip), vehicle: saline
[9] = endpoint: mean survival time, dose: 100.0 mg/kg/injection, schedule: Q04DX003 (ip), vehicle: saline
[10] = endpoint: mean survival time, dose: 200.0 mg/kg/injection, schedule: Q04DX003 (ip), vehicle: saline
[11] = endpoint: mean survival time, dose: 400.0 mg/kg/injection, schedule: Q04DX003 (ip), vehicle: saline
[12] = endpoint: mean survival time, dose: 25.0 mg/kg/injection, schedule: Q04DX003 (ip), vehicle: saline with Tween-80
[13] = endpoint: mean survival time, dose: 50.0 mg/kg/injection, schedule: Q04DX003 (ip), vehicle: saline with Tween-80
[14] = endpoint: mean survival time, dose: 100.0 mg/kg/injection, schedule: Q01DX001 (ip), vehicle: saline with Tween-80
[15] = endpoint: mean survival time, dose: 100.0 mg/kg/injection, schedule: Q04DX002 (ip), vehicle: saline with Tween-80
[16] = endpoint: mean survival time, dose: 200.0 mg/kg/injection, schedule: Q01DX001 (ip), vehicle: saline with Tween-80
[17] = endpoint: mean survival time, dose: 200.0 mg/kg/injection, schedule: Q04DX002 (ip), vehicle: saline with Tween-80
[18] = endpoint: mean survival time, dose: 100.0 mg/kg/injection, schedule: Q04DX003 (ip), vehicle: Klucel (hydroxypropylcellulose) (HPC)
[19] = endpoint: mean survival time, dose: 50.0 mg/kg/injection, schedule: Q04DX002 (ip), vehicle: saline with Tween-80

Measured: T/C

COc1ccc(OC)c(CC(C(C)=O)C(C)=O)c1
inactive: endpoint: mean survival time, dose: 12.5 mg/kg/injection, schedule: Q01DX009 (ip), vehicle: water 100 % of control | endpoint: mean survival time, dose: 25.0 mg/kg/injection, schedule: Q01DX009 (ip), vehicle: water 96 % of control | endpoint: mean survival time, dose: 50.0 mg/kg/injection, schedule: Q01DX009 (ip), vehicle: water 100 % of control | endpoint: mean survival time, dose: 100.0 mg/kg/injection, schedule: Q01DX009 (ip), vehicle: water 98 % of control | endpoint: mean survival time, dose: 200.0 mg/kg/injection, schedule: Q01DX009 (ip), vehicle: water 95 % of control

CCCCCCCCCCCCCCCCCCCCCC(O)(CC)CC
inactive: [1] 97 % of control | [2] 94 % of control | [3] 94 % of control | [4] 94 % of control | [5] 100 % of control | [6] 95 % of control

CCN(CC)C1=C(C)S(=O)(=O)C1c1ccc(C)cc1 (stereo not given)
inactive: [7] 102 % of control | [8] 97 % of control | [1] 98 % of control | [9] 103 % of control | endpoint: mean survival time, dose: 200.0 mg/kg/injection, schedule: Q01DX001 (ip), vehicle: saline 97 % of control | [3] 98 % of control | [10] 109 % of control | endpoint: mean survival time, dose: 400.0 mg/kg/injection, schedule: Q01DX001 (ip), vehicle: saline 97 % of control | [11] 100 % of control

Cc1cccc(NC(N)=S)n1
inactive: endpoint: mean survival time, dose: 12.5 mg/kg/injection, schedule: Q01DX009 (ip), vehicle: other 103 % of control | endpoint: mean survival time, dose: 25.0 mg/kg/injection, schedule: Q01DX009 (ip), vehicle: other 107 % of control | endpoint: mean survival time, dose: 50.0 mg/kg/injection, schedule: Q01DX009 (ip), vehicle: other 107 % of control | endpoint: mean survival time, dose: 100.0 mg/kg/injection, schedule: Q01DX009 (ip), vehicle: other 91 % of control | endpoint: mean survival time, dose: 200.0 mg/kg/injection, schedule: Q01DX009 (ip), vehicle: other 111 % of control

Clc1ccccc1C(Nc1cnccn1)Nc1cnccn1
inactive: endpoint: median survival time, dose: 25.0 mg/kg/injection, schedule: Q01DX009 (ip), vehicle: saline with Tween-80 97 % of control and 102 % of control | endpoint: median survival time, dose: 50.0 mg/kg/injection, schedule: Q01DX009 (ip), vehicle: saline with Tween-80 97 % of control and 110 % of control | endpoint: median survival time, dose: 100.0 mg/kg/injection, schedule: Q01DX009 (ip), vehicle: saline with Tween-80 108 % of control and 109 % of control | endpoint: median survival time, dose: 200.0 mg/kg/injection, schedule: Q01DX009 (ip), vehicle: saline with Tween-80 113 % of control and 124 % of control | endpoint: median survival time, dose: 400.0 mg/kg/injection, schedule: Q01DX009 (ip), vehicle: saline with Tween-80 92 % of control

O=C(O)C1C(C(=O)O)C2C3C4C1C1C2C3C41 (stereo not given)
inactive: [2] 108 % of control | [4] 104 % of control | [6] 98 % of control

O=C(COc1ccccc1)NC(=S)Nc1nccs1
inactive: [12] 87 % of control | [13] 88 % of control and 103 % of control | [14] 97 % of control | [1] 93 % of control and 102 % of control | [15] 98 % of control | [2] 88 % of control and 97 % of control | [16] 95 % of control | [3] 93 % of control and 104 % of control | [17] 102 % of control | [4] 101 % of control and 108 % of control | endpoint: mean survival time, dose: 400.0 mg/kg/injection, schedule: Q01DX001 (ip), vehicle: saline with Tween-80 107 % of control | [5] 111 % of control

CCCCCCCCCCCCC/C=N/NC(=O)c1ccc[n+](C)c1
inactive: [14] 93 % of control | [16] 98 % of control

O=Cc1[nH]c(=S)[nH]c(=O)c1Cc1cccc2ccccc12
inactive: [2] 96 % of control | [4] 95 % of control | [6] 102 % of control

OC(Cc1ccc2ccccc2n1)C(Cl)(Cl)Cl (stereo not given)
inactive: endpoint: mean survival time, dose: 100.0 mg/kg/injection, schedule: Q04DX003 (ip), vehicle: alcohol 95 % of control | endpoint: mean survival time, dose: 200.0 mg/kg/injection, schedule: Q04DX003 (ip), vehicle: alcohol 95 % of control | endpoint: mean survival time, dose: 400.0 mg/kg/injection, schedule: Q04DX003 (ip), vehicle: alcohol 101 % of control

CCOC(=O)CNC(=O)NC
inactive: endpoint: mean survival time, dose: 100.0 mg/kg/injection, schedule: Q01DX009 (ip), vehicle: saline 100 % of control | endpoint: mean survival time, dose: 200.0 mg/kg/injection, schedule: Q01DX009 (ip), vehicle: saline 98 % of control | endpoint: mean survival time, dose: 400.0 mg/kg/injection, schedule: Q01DX009 (ip), vehicle: saline 100 % of control

O=C1CCC2(CCC(=O)O2)O1
inactive: [9] 94 % of control | [10] 100 % of control | [11] 93 % of control

COC(=O)CNC(=O)C(Cc1ccc(OCc2ccccc2)cc1)NC(=O)OC(C)(C)C (stereo not given)
inactive: [2] 91 % of control | [4] 91 % of control | [6] 95 % of control

CCCCC(CC)CO.[Ti] (stereo not given)
inactive: [7] 103 % of control | [1] 106 % of control | [3] 97 % of control

CC1(C)CC(=O)C2(C)CCC3(CC2C1)OCCO3 (stereo not given)
inactive: [2] 96 % of control | [4] 96 % of control | [6] 96 % of control

CNC(=O)OC(C)CC(O)(C(F)(F)F)C(F)(F)F (stereo not given)
inactive: endpoint: mean survival time, dose: 25.0 mg/kg/injection, schedule: Q01DX009 (ip), vehicle: saline with Tween-80 97 % of control | [12] 96 % of control | [7] 101 % of control | [13] 98 % of control | [1] 98 % of control | [18] 96 % of control | [2] 98 % of control

Nc1cccc(OCC(O)CN2CCN(c3ccccc3)CC2)c1 (stereo not given)
inactive: [19] 93 % of control | [15] 89 % of control and 94 % of control | [17] 112 % of control

O=C1C=C(O)c2ccccc2C1=O
inactive: endpoint: mean survival time, dose: 25.0 mg/kg/injection, schedule: Q01DX001 (ip), vehicle: saline 106 % of control | endpoint: mean survival time, dose: 50.0 mg/kg/injection, schedule: Q01DX001 (ip), vehicle: saline 106 % of control | [8] 102 % of control

Nc1ncnc2sc3c(c12)CCCC3
inactive: endpoint: mean survival time, dose: 50.0 mg/kg/injection, schedule: Q04DX003 (ip), vehicle: Klucel (hydroxypropylcellulose) (HPC) 96 % of control | [18] 100 % of control | endpoint: mean survival time, dose: 200.0 mg/kg/injection, schedule: Q04DX003 (ip), vehicle: Klucel (hydroxypropylcellulose) (HPC) 91 % of control

S=C(NCCNC(=S)[S][Sn]([c]1ccccc1)([c]1ccccc1)[c]1ccccc1)[S][Sn]([c]1ccccc1)([c]1ccccc1)[c]1ccccc1
inactive: [12] 88 % of control | [13] 93 % of control | [2] 100 % of control

O=C(O)CCC(NC(=O)c1ccccc1)C(=O)O (stereo not given)
inactive: endpoint: mean survival time, dose: 100.0 mg/kg/injection, schedule: Q01DX001 (ip), vehicle: Klucel (hydroxypropylcellulose) (HPC) 96 % of control | endpoint: mean survival time, dose: 200.0 mg/kg/injection, schedule: Q01DX001 (ip), vehicle: Klucel (hydroxypropylcellulose) (HPC) 96 % of control | endpoint: mean survival time, dose: 400.0 mg/kg/injection, schedule: Q01DX001 (ip), vehicle: Klucel (hydroxypropylcellulose) (HPC) 100 % of control

C=CC1(C)CCN=C(CCN2CCCCC2)O1 (stereo not given)
inactive: endpoint: mean survival time, dose: 100.0 mg/kg/injection, schedule: Q01DX001 (ip), vehicle: saline sonified 97 % of control | endpoint: mean survival time, dose: 200.0 mg/kg/injection, schedule: Q01DX001 (ip), vehicle: saline sonified 100 % of control

O=C(COc1c(Cl)cc(Cl)cc1Cl)Nc1ccc2c(c1)C(=O)c1ccccc1C2=O
inactive: endpoint: mean survival time, dose: 25.0 mg/kg/injection, schedule: Q04DX002 (ip), vehicle: saline with Tween-80 98 % of control | [19] 98 % of control | [15] 94 % of control

NC(=O)c1ncn(C2OC(CO)C(O)C2O)c1Cl (stereo not given)
inactive: endpoint: median survival time, dose: 8.0 mg/kg/injection, schedule: Q01DX005 (ip), vehicle: water 100 % of control | endpoint: median survival time, dose: 16.0 mg/kg/injection, schedule: Q01DX005 (ip), vehicle: water 103 % of control | endpoint: median survival time, dose: 32.0 mg/kg/injection, schedule: Q01DX005 (ip), vehicle: water 100 % of control | endpoint: median survival time, dose: 64.0 mg/kg/injection, schedule: Q01DX005 (ip), vehicle: water 100 % of control | endpoint: median survival time, dose: 128.0 mg/kg/injection, schedule: Q01DX005 (ip), vehicle: water 107 % of control

C[S+](C)CCC(N)C(=O)O (stereo not given)
inactive: endpoint: median survival time, dose: 3.13 mg/kg/injection, schedule: Q04DX002 (ip), vehicle: saline 105 % of control | endpoint: median survival time, dose: 6.25 mg/kg/injection, schedule: Q04DX002 (ip), vehicle: saline 105 % of control | endpoint: median survival time, dose: 12.5 mg/kg/injection, schedule: Q04DX002 (ip), vehicle: saline 108 % of control | endpoint: median survival time, dose: 25.0 mg/kg/injection, schedule: Q04DX002 (ip), vehicle: saline 100 % of control | endpoint: median survival time, dose: 50.0 mg/kg/injection, schedule: Q04DX002 (ip), vehicle: saline 117 % of control
